Data set [1] concerns Hair growth of Beagles. Put plainly: Hair growth measurement in adult beagles fed diets with various levels of selenium. The class given is in vivo, dog (Beagle). The text has this:
Adult beagles of both male and females are used. They are between 1.2 and 3.7 years of age at the start of the experiment.
(§1) Study Design: Thirty-six adult dogs are divided into six groups of six dogs in each group based on their age, gender and body condition score so that the averages of those three criteria are similar among groups. All dogs are given the basal diet for three weeks (pre-treatment period) before they are allocated to one of the experimental diets. The third week of the pre-treatment period is considered as week 0 of the study. Hair growth is measured in weeks 0, 11 and 22 of the study using the method described below. Dogs are fed with the experimental diets for 24 weeks.
(§2) A torula yeast basal diet is used. The basal diet is nutritionally complete and balanced for an adult dog except for selenium. Different amounts of selenium (as selenomethionine) are added into the basal diet to form six experimental diets which contain 0, 0.05, 0.1, 0.5, 1 or 5 mg selenium/kg diet dry matter, respectively. Selenium concentrations in the experimental diets are confirmed by chemical analyses. The analyzed dietary selenium concentrations were 0.034, 0.085, 0.123, 0.527, 1.025 and 5.045 mg/kg dry matter, respectively.
Hair Growth Measurement: Hairs in an area of […] on the left side of the body above the hind leg and about 3 cm away from the spinal are clipped with an electronic clipper (Oster Pro™ Model 78400-01A, blade size: 40.1 mm, Oster Elite™). The hair is cut as close to the skin as possible. A tattoo dot of about 1 mm in diameter is made in the center of the clipped area using a tattoo marker (Spaulding Special Electric Tattoo Marker, Model SSEMK). Hair growth is measured by taking photographs from the same clipped area twice using the tattoo dot as a marker. The first photograph is taken right after the clipping and the second photograph four days later. A Polaroid close-up camera (CU-5) and Polaroid 665 films are used to take photographs. A glass slide is attached to the front frame of the camera to press hairs to the skin to minimize errors caused by the angle formed between standing hair and the skin. The image is magnified three times by the camera. Same exposure conditions are used for all dogs in the study. On each day of photograph shooting, a photograph is also taken of a ruler with clear markers under the same conditions and serves as a reference. After exposure, both prints and negatives of the films are treated according to the use directions. The negative films provide sharp and clear images of hairs and are used for hair growth measurement. The negative films are scanned (EPSON Expression 836XL) into a computer. Afterwards, the length of primary hairs in the film is measured using an image analyzing software (BioScan Optimas). The difference of the average hair lengths between the first and the second photographs from the same dog is the hair growth during the four-day period.

Data set [2] can be described thus: Clinical signs, food intake, body weight, blood and thyroid hormone measurements in dogs during the 24-week feeding study. To be noted: diets with 0 to 5 mg added selenium/kg, study period 24 weeks. The class given is in vivo, dog (Beagle). The protocol: as §1, §2

Regarding `C[Se]CC[C@H](N)C(=O)O` [selenium, selenomethionine], the Hair growth in data set [1] (dietary Se 0.034 mg/kg dry matter (0 added), Week 0 (pre-treatment, basal diet)) was determined as 0.21 mm/day; in data set [1] (dietary Se 0.034 mg/kg dry matter (0 added), Week 11) it was 0.12 mm/day; in data set [1] (dietary Se 0.034 mg/kg dry matter (0 added), Week 22), 0.12 mm/day; in data set [1] (dietary Se 0.085 mg/kg dry matter (0.05 added), Week 0 (pre-treatment, basal diet)), 0.18 mm/day; in data set [1] (dietary Se 0.085 mg/kg dry matter (0.05 added), Week 11), 0.15 mm/day; in data set [1] (dietary Se 0.085 mg/kg dry matter (0.05 added), Week 22), 0.11 mm/day. Also, the Hair growth in data set [1] (dietary Se 0.123 mg/kg dry matter (0.1 added), Week 0 (pre-treatment, basal diet)) amounted to 0.13 mm/day; in data set [1] (dietary Se 0.123 mg/kg dry matter (0.1 added), Week 11), 0.26 mm/day; in data set [1] (dietary Se 0.123 mg/kg dry matter (0.1 added), Week 22), 0.20 mm/day; in data set [1] (dietary Se 0.527 mg/kg dry matter (0.5 added), Week 0 (pre-treatment, basal diet)), 0.15 mm/day; in data set [1] (dietary Se 0.527 mg/kg dry matter (0.5 added), Week 11), 0.22 mm/day; in data set [1] (dietary Se 0.527 mg/kg dry matter (0.5 added), Week 22), 0.23 mm/day. Also, the Hair growth in data set [1] (dietary Se 1.025 mg/kg dry matter (1 added), Week 0 (pre-treatment, basal diet)) is on record as 0.18 mm/day; in data set [1] (dietary Se 1.025 mg/kg dry matter (1 added), Week 11), 0.26 mm/day; in data set [1] (dietary Se 1.025 mg/kg dry matter (1 added), Week 22) it was 0.20 mm/day; in data set [1] (dietary Se 5.045 mg/kg dry matter (5 added), Week 0 (pre-treatment, basal diet)), 0.20 mm/day; in data set [1] (dietary Se 5.045 mg/kg dry matter (5 added), Week 11), 0.14 mm/day; in data set [1] (dietary Se 5.045 mg/kg dry matter (5 added), Week 22), 0.13 mm/day. Besides, the “Effect on hair growth of dogs (conclusion)” value in data set [1] (dietary selenium concentrations from 0.1 to about 4.5 mg selenium/kg diet) is “maximize hair growth of dogs”. The “Rate of hair growth compared between diet groups” value in data set [1] (diets containing 0.1, 0.5 or 1 mg selenium/kg vs 0, 0.05 or 5 mg selenium/kg, week 11 and 22) is listed as “significantly (p<0.05) higher rate of hair growth”. The “Difference in hair growth among groups” value in data set [1] (week 0 (pre-treatment)) is reported as “no difference in hair growth among groups”. Further, the “Average food intake and body weights” value in data set [2] is listed as “not affected by the dietary treatments”. Also, the “Blood CBC and chemistry measurements, serum total thyroxine and 3,5,3'-triiodothyronine” value in data set [2] is listed as “within the normal ranges”.

(Values after US20050019425A1, “Composition and method” (priority 2001, published 2005).)
